Read-outs that look alike come from different tables or passages of the source.
Biological target: bovine serum albumin (Bos taurus, UniProt P02769)
Test: Inhibition of glycation of bovine serum albumin by D-ribose (AGE fluorescence)
Assay type: biochemical
Conditions: for inhibition at 1 µM / inhibition at 10 µM: read-out: % inhibition (of glycation)
Procedure: A solution of bovine serum albumin at 1 mg/ml in solution in phosphate buffered saline (PBS) was incubated at 37° C. for 14 days in the presence or in the absence of D-ribose at the concentration of […], of 3,3′,5,5′-tetrahydroxystilbene or of resveratrol, each at the concentrations of 1 μM and 10 μM.
The glycation was evaluated by measuring the fluorescence of the AGEs at λem.=440 nm emitted by each sample after excitation at λex.=370 nm.
The inhibition of glycation was visualized by the reduction in the fluorescence compared with the sample treated with the sugar alone.

bovine serum albumin, sequence (P02769 25-607): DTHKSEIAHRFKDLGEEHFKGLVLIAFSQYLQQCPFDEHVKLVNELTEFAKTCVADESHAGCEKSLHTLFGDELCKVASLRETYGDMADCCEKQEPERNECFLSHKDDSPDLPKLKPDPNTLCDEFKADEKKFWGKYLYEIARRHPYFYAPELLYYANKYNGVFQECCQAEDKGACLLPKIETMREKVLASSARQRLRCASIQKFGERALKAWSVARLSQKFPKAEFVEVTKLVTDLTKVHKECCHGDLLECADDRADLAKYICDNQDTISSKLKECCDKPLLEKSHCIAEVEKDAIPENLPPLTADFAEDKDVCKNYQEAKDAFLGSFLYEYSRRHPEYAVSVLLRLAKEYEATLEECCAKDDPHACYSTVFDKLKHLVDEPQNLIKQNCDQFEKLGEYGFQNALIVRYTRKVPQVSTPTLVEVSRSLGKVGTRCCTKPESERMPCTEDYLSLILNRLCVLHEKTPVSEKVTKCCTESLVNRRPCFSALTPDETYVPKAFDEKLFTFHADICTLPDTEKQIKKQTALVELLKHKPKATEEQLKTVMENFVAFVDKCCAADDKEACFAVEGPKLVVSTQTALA

Row | inhibition at 1 µM (compound 1 μM, BSA 1 mg/ml in PBS, D-ribose 10 μM, 37° C., 14 days, AGE fluorescence λex 370 nm/λem 440 nm vs sugar alone) [%] | inhibition at 10 µM (compound 10 μM, BSA 1 mg/ml in PBS, D-ribose 10 μM, 37° C., 14 days, AGE fluorescence λex 370 nm/λem 440 nm vs sugar alone) [%] | antiglycation effect relative to resveratrol (at the concentration of 10 μM) [times] | antiglycation effect (in words) (from the concentration of 1 μM) | inhibition at 1 µM [%] | inhibition at 10 µM [%] | Structure (SMILES)
1 | 7.1 | 7.1 |  |  |  |  | Oc1ccc(C=Cc2cc(O)cc(O)c2)cc1 [B, resveratrol, reference compound]
2 |  |  | ~2 | advantageous antiglycation effect | 7.1 | 14.3 | Oc1cc(O)cc(/C=C/c2cc(O)cc(O)c2)c1 [A, 3,3′,5,5′-tetrahydroxystilbene]

Source: US6414038B2, “Hydroxystilbenes for reducing/inhibiting protein glycation and combating skin aging” (Societe L'Oreal, priority 1999, dated 2002)
